Structures are written as SMILES. Like-named read-outs stand apart in the source and are kept apart here.

The values that follow come from patent US20180343865A1, “HERBICIDAL COMPOSITIONS COMPRISING ISOXAZOLO[5,4-B]PYRIDINES” (BASF SE, priority 2015, published 2018).

Holding throughout (type): in vivo
The subject of one assay is Amaranthus palmeri. The assay can be described thus: Greenhouse postemergence herbicidal activity on AMAPA, 20 DAT. Particulars: Amaranthus palmeri, post-emergence, 480 h; for inhibition at 62.5 g/ha: 62.5 gai/ha. On the procedure: (§1) For the post emergence treatment, the plants were first grown to the 2 leaf station (GS 12) and applied at GS 12-19 depending on the species. The herbicidal compositions were suspended or emulsified in water as distribution medium and sprayed using finely distributing nozzles.
(§2) The plants have been cultivated due to their individual requirements at 10 to 25° C. and. 20 to 35° C. The plants were irrigated due to their necessity.
(§3) The respective stated components A), were formulated as a 5% by weight strength emulsion concentrate containing wettol EM 31 20% and Cyclohexanone 80%. The respective stated components B), were formulated as either emulsifiable concentrates (EC), soluble liquids (SL), suspension concentrates (SC) or soluble granules (SG) as indicated in the table below. Component A, component B and the solvent system are introduced into the spray liquor used for applying the active compound. In the examples, the solvent used was water containing 1% Dash (Agnique ME 181 37.5%, Lutensit A-EP 22.5%, and Oleic Acid 5%) and 2% ammonium suflate.
(§4) In the following experiments, the herbicidal activity for the individual herbicide compounds (solo and mixture applications), the herbicidal succession was assessed 20 days after treatment (DAT). The evaluation for the damage on undesired weeds caused by the chemical compositions was carried out using a scale from 0 to 100%, compared to the untreated control plants. Here, 0 means no damage and 100 means complete destruction of the plants. The plants used in the greenhouse experiments belonged to the following species:
(§5) The value E, which corresponds to the effect (in %) that is to be expected if the activity of the individual compounds is additive, was calculated using the method of S. R. Colby (1967) “Calculating synergistic and antagonistic responses of herbicide combinations”, Weeds 15, p. 22 ff. Colby calculation for 2 way mixtures:
(§6) where: • X=effect in percent using herbicide A at an application rate a; • Y=effect in percent using herbicide B at an application rate b; • E=expected effect (in %) of A+B at application rates a+b
(§7) If the value observed in this manner is higher than the value E calculated according to Colby, a synergistic effect is present.

In the next assay the test system is Kochia scoparia. The assay can be described thus: Greenhouse postemergence herbicidal activity on KCHSC, 20 DAT. As to the method:
as §1, §2, §3, §4, §5, §6, §7

Another assay relates to Chenopodium album. The assay can be described thus: Greenhouse postemergence herbicidal activity on CHEAL, 20 DAT. On the procedure:
as §1, §2, §3, §4, §5, §6, §7

The next assay deals with Abutilon theoprasti. Briefly: Greenhouse postemergence herbicidal activity on ABUTH, 20 DAT. Particulars: for inhibition at 62.5 g/ha: 62.5 gai/ha; for inhibition at 125 g/ha: 125 gai/ha. As to the method: as §1, §2, §3, §4, §5, §6, §7
The test system of another assay is Amaranthus retroflexus. The assay can be described thus: Greenhouse postemergence herbicidal activity on AMARE, 20 DAT. Particulars: AMARE, postemergence. On the procedure:
as §1, §2, §3, §4, §5, §6, §7

For a further assay, the system named is Ipomoea hederacea. Briefly: Greenhouse postemergence herbicidal activity on IPOHE, 20 DAT. As to the method: as §1, §2, §3, §4, §5, §6, §7
The next assay concerns Sinapis arvensis. Briefly: Greenhouse postemergence herbicidal activity on SINAR, 20 DAT. Particulars: Mutarda arvensis, post-emergence, 480 h, read-out: % activity, solo bromoxynil. On the procedure:
as §1, §2, §3, §4, §5, §6, §7

A further assay relates to Galium aparine. Briefly: Greenhouse postemergence herbicidal activity on GALAP, 20 DAT. On the procedure:
as §1, §2, §3, §4, §5, §6, §7

The test system of a further assay is Stellaria media. Briefly: Greenhouse postemergence herbicidal activity on STEME, 20 DAT. As to conditions: Stellaria media, post-emergence, 480 h, STEME, postemergence, 20 DAT, read-out: % activity, solo bromoxynil. On the procedure:
as §1, §2, §3, §4, §5, §6, §7

For a further assay, the system named is Polygonum convolvulus. The assay can be described thus: Greenhouse postemergence herbicidal activity on POLCO, 20 DAT. As to conditions: POLCO, postemergence. On the procedure: as §1, §2, §3, §4, §5, §6, §7
[1] abbreviates: Abutilon, post-emergence, 480 h, 20 DAT, read-out: % activity, solo (I.B).
The mark [2] stands for this setting: Abutilon, post-emergence, 480 h, 20 DAT, read-out: % activity, solo bromoxynil.

Take `O=C(O)c1cc(C2CC2)nc2onc(-c3ccc(OC(F)F)cc3)c12` [(I.B)]: in the assay on Amaranthus palmeri (15.6 gai/ha, read-out: % activity, solo (I.B)), the inhibition at 15.6 g/ha was found to be 20%. For the same molecule, the inhibition at 31.25 g/ha in the assay with Amaranthus palmeri (31.25 gai/ha, read-out: % activity, solo (I.B)) came out at 70%; with Kochia scoparia (Bassia scoparia, post-emergence, 480 h, 31.25 gai/ha, 20 DAT, read-out: % activity, solo (I.B)), 43%; in the assay with Chenopodium album (Chenopodium album, post-emergence, 480 h, 31.25 gai/ha, 20 DAT, read-out: % activity, solo (I.B)), 53%; with Abutilon theoprasti (Abutilon, post-emergence, 480 h, 31.25 gai/ha, 20 DAT, read-out: % activity, solo (I.B)) it was 70%; in the assay with Amaranthus retroflexus (Amaranthus retroflexus, post-emergence, 480 h, 31.25 gai/ha, 20 DAT, read-out: % activity, solo (I.B)), 89%. The inhibition at 62.5 g/ha turned out to be 78% in the assay on Amaranthus palmeri (read-out: % activity, solo (I.B)) and 75% with Abutilon theoprasti (setting [1]). In addition, the inhibition at 125 g/ha in the assay with Abutilon theoprasti (setting [1]) stood at 73%.
Regarding `COCC(C)N(C(=O)CCl)c1c(C)csc1C` (stereo not shown) [DMTA, Dimethenamid], the inhibition at 175 g/ha worked out at 10% in the assay on Amaranthus palmeri (175 gai/ha, read-out: % activity, solo DMTA); 0% in the assay with Kochia scoparia (Bassia scoparia, post-emergence, 480 h, 175 gai/ha, 20 DAT, read-out: % activity, solo DMTA); 0% with Abutilon theoprasti (Abutilon, post-emergence, 480 h, 175 gai/ha, 20 DAT, read-out: % activity, solo DMTA); 35% in the assay on Amaranthus retroflexus (Amaranthus retroflexus, post-emergence, 480 h, 175 gai/ha, 20 DAT, read-out: % activity, solo DMTA). Further, the inhibition at 350 g/ha in the assay with Amaranthus palmeri (350 gai/ha, read-out: % activity, solo DMTA) amounted to 20%; in the assay on Chenopodium album (Chenopodium album, post-emergence, 480 h, 350 gai/ha, 20 DAT, read-out: % activity, solo DMTA), 28%; in the assay on Abutilon theoprasti (Abutilon, post-emergence, 480 h, 350 gai/ha, 20 DAT, read-out: % activity, solo DMTA) it was 0%; in the assay on Amaranthus retroflexus (Amaranthus retroflexus, post-emergence, 480 h, 350 gai/ha, 20 DAT, read-out: % activity, solo DMTA), 45%. Also, in the assay with Kochia scoparia (350 gai/ha, 20 DAT), the “% activity, solo DMTA” value is given as 5%.
For `N#Cc1cc(Br)c(O)c(Br)c1` [bromoxynil], the inhibition at 10.5 g/ha in the assay on Amaranthus palmeri (10.5 gai/ha, read-out: % activity, solo bromoxynil) turned out to be 58%; in the assay on Chenopodium album (Chenopodium album, post-emergence, 480 h, 10.5 gai/ha, 20 DAT, read-out: % activity, solo bromoxynil), 53%; in the assay on Ipomoea hederacea (Ipomoea hederacea, post-emergence, 480 h, 10.5 gai/ha, 20 DAT, read-out: % activity, solo bromoxynil), 65%; with Abutilon theoprasti (Abutilon, post-emergence, 480 h, 10.5 gai/ha, 20 DAT, read-out: % activity, solo bromoxynil), 68%; with Amaranthus retroflexus (Amaranthus retroflexus, post-emergence, 480 h, 10.5 gai/ha, 20 DAT, read-out: % activity, solo bromoxynil) it was 28%. Further, the inhibition at 62.5 g/ha with Amaranthus palmeri (read-out: % activity, solo bromoxynil) is 83%; in the assay with Kochia scoparia (Bassia scoparia, post-emergence, 480 h, 62.5 gai/ha, 20 DAT, read-out: % activity, solo bromoxynil) it was 50%; in the assay on Chenopodium album (Chenopodium album, post-emergence, 480 h, 62.5 gai/ha, 20 DAT, read-out: % activity, solo bromoxynil), 45%; in the assay with Abutilon theoprasti (setting [2]), 73%; with Sinapis arvensis (62.5 gai/ha), 70%; in the assay with Galium aparine (Galium aparine, post-emergence, 480 h, 62.5 gai/ha, 20 DAT, read-out: % activity, solo bromoxynil), 89%. Moreover, the inhibition at 62.5 g/ha with Stellaria media (62.5 gai/ha) is 0%. The inhibition at 21 g/ha in the assay with Chenopodium album (Chenopodium album, post-emergence, 480 h, 21 gai/ha, 20 DAT, read-out: % activity, solo bromoxynil) was determined as 80%; in the assay with Ipomoea hederacea (Ipomoea hederacea, post-emergence, 480 h, 21 gai/ha, 20 DAT, read-out: % activity, solo bromoxynil), 65%. Moreover, the inhibition at 125 g/ha in the assay with Chenopodium album (Chenopodium album, post-emergence, 480 h, 125 gai/ha, 20 DAT, read-out: % activity, solo bromoxynil) was 85%; in the assay on Ipomoea hederacea (Ipomoea hederacea, post-emergence, 480 h, 125 gai/ha, 20 DAT, read-out: % activity, solo bromoxynil) it was 72%; with Abutilon theoprasti (setting [2]), 90%; in the assay on Amaranthus retroflexus (Amaranthus retroflexus, post-emergence, 480 h, 125 gai/ha, 20 DAT, read-out: % activity, solo bromoxynil), 80%; with Galium aparine (Galium aparine, post-emergence, 480 h, 125 gai/ha, 20 DAT, read-out: % activity, solo bromoxynil), 70%; in the assay on Stellaria media (125 gai/ha) it was 0%. For the same molecule, the inhibition at 250 g/ha in the assay with Chenopodium album (Chenopodium album, post-emergence, 480 h, 250 gai/ha, 20 DAT, read-out: % activity, solo bromoxynil) was found to be 95%; in the assay with Abutilon theoprasti (Abutilon, post-emergence, 480 h, 250 gai/ha, 20 DAT, read-out: % activity, solo bromoxynil), 90%; in the assay with Amaranthus retroflexus (Amaranthus retroflexus, post-emergence, 480 h, 250 gai/ha, 20 DAT, read-out: % activity, solo bromoxynil) it was 92%; with Sinapis arvensis (250 gai/ha), 95%; in the assay with Stellaria media (250 gai/ha), 0%.
In the case of `Cc1c(C(=O)c2cnn(C)c2O)ccc(S(C)(=O)=O)c1C1=NOCC1` [topramezone], the “% activity, solo application topramezone” value was found to be 20% in the assay on Kochia scoparia (6.25 gai/ha); 43% in the assay with Kochia scoparia (12.5 gai/ha); 75% in the assay with Kochia scoparia (25 gai/ha); 90% in the assay on Kochia scoparia (50 gai/ha); 30% in the assay with Chenopodium album (6.25 gai/ha); 55% with Chenopodium album (12.5 gai/ha). In addition, the “% activity, solo application topramezone” value in the assay on Chenopodium album (25 gai/ha) came to 55%; with Chenopodium album (50 gai/ha), 73%; in the assay with Ipomoea hederacea (6.25 gai/ha), 23%; in the assay on Ipomoea hederacea (12.5 gai/ha), 55%; with Ipomoea hederacea (25 gai/ha) it was 75%; in the assay on Ipomoea hederacea (50 gai/ha), 88%. In addition, the “% activity, solo application topramezone” value came out at 93% in the assay on Abutilon theoprasti (6.25 gai/ha); 98% with Amaranthus retroflexus (25 gai/ha); 70% in the assay on Galium aparine (6.25 gai/ha); 75% with Galium aparine (12.5 gai/ha); 70% in the assay on Galium aparine (25 gai/ha); 85% in the assay with Galium aparine (50 gai/ha). Further, the “% activity, solo application topramezone” value in the assay with Polygonum convolvulus (6.25 gai/ha) amounted to 25%; with Polygonum convolvulus (12.5 gai/ha), 25%; in the assay on Polygonum convolvulus (25 gai/ha), 68%.
